# From publication PMC7584476, “Safety and efficacy of BAY1436032 in IDH1-mutant AML: phase I study results” (Leukemia, 2020)
# Test system: subjects with mIDH1 advanced AML
# Test: Phase I study: safety and tolerability (TEAE, DLT, MTD, ECG)
# Format: in vivo
# Method: This study was an open-label, nonrandomized, multicenter phase I trial. Subjects were screened at 13 hospital sites in 2 countries (USA and Germany). The study was to consist of dose-escalation followed by dose-expansion. The MTD identified in dose-escalation was to be used in the dose-expansion. If MTD was not reached in dose-escalation, a dose for the expansion would be selected based on available PK, pharmacodynamic, safety, and efficacy data. BAY1436032 was administered twice-daily (BID) in continuous 28-day cycles. In dose-escalation, up to 9 evaluable subjects could be enrolled per cohort, with a minimum of 3 dose-limiting toxicity (DLT)-free evaluable subjects required prior to escalating to the next highest dose. Bayesian dose-DLT modeling was performed to help guide dosing decisions.
# DLTs were differentially defined for nonhematopoietic versus hematopoietic toxicities. Nonhematopoietic toxicities of ≥grade 3 occurring during the first cycle of treatment were to be considered DLTs with the following exceptions: (1) Alopecia and nausea controlled by medical management; (2) Tumor lysis syndrome if successfully managed clinically and resolved within 7 days without any end-organ damage; (3) Differentiation syndrome (DS) if successfully managed clinically and resolved within 7 days without any end-organ damage; (4) Asymptomatic ≥grade 3 electrolyte abnormalities not considered clinically significant by the investigator. […] For certain toxicities such as laboratory assessments without a clear clinical correlate, a discussion between the investigator and the sponsor determined whether the adverse event (AE) should be assessed as a DLT.
# DLTs identified during the first cycle of treatment were used to guide dose-escalation decisions and to determine the MTD, and if safety issues appeared in subsequent cycles they were also to be considered. Hydroxyurea was permitted during the first cycle if white blood cell (WBC) exceeded 20 × 10^9/L and was also permitted for treatment of DS.
# Safety and tolerability were evaluated by analysis of adverse events, physical examinations, vital signs, ECOG performance status, and various laboratory assessments. For safety monitoring, subjects were scheduled for clinic visits every week for the initial three cycles of treatment, after which time visits could be reduced to every-other-week with investigator and sponsor agreement. Cardiac function was assessed with triplicate 12-lead electrocardiograms (ECG) at screening, C1-D1, C1-D2, C1-D15, D1 of every subsequent cycle, and at treatment end. […] AEs are presented by the Medical Dictionary for Regulatory Activities (MedDRA) v21.1.
structure (smiles),measurement,setting,value
C[C@H]1C[C@@H](n2c(Nc3ccc(OC(F)(F)F)cc3)nc3cc(CCC(=O)O)ccc32)CC(C)(C)C1 [BAY1436032],TEAE Decreased appetite Grade 1,"600 mg BID, n=4",0
same,TEAE Decreased appetite Grade 2,"600 mg BID, n=4",0
same,TEAE Decreased appetite Grade 3,"600 mg BID, n=4",0
same,TEAE Diarrhea Grade 1,"600 mg BID, n=4",0
same,TEAE Diarrhea Grade 2,"600 mg BID, n=4",0
same,TEAE Dry skin Grade 1,"600 mg BID, n=4",1
same,TEAE Dyspnoea Grade 1,"600 mg BID, n=4",0
same,TEAE Dyspnoea Grade 2,"600 mg BID, n=4",0
same,TEAE Dyspnoea Grade 3,"600 mg BID, n=4",0
same,TEAE Epistaxis Grade 1,"600 mg BID, n=4",1
same,TEAE Epistaxis Grade 2,"600 mg BID, n=4",0
same,TEAE Epistaxis Grade 3,"600 mg BID, n=4",1
same,TEAE Fall Grade 1,"600 mg BID, n=4",1
same,TEAE Fatigue Grade 1,"600 mg BID, n=4",1
same,TEAE Fatigue Grade 2,"600 mg BID, n=4",0
same,TEAE Fatigue Grade 3,"600 mg BID, n=4",0
same,TEAE Febrile neutropenia Grade 3,"600 mg BID, n=4",1
same,TEAE General physical health deterioration Grade 3,"600 mg BID, n=4",0
same,TEAE General physical health deterioration Grade 5,"600 mg BID, n=4",0
same,TEAE Gingivitis Grade 1,"600 mg BID, n=4",1
same,TEAE Haematuria Grade 1,"600 mg BID, n=4",0
same,TEAE Haematuria Grade 2,"600 mg BID, n=4",1
same,TEAE Haematuria Grade 3,"600 mg BID, n=4",0
same,TEAE Headache Grade 1,"600 mg BID, n=4",0
same,TEAE Headache Grade 2,"600 mg BID, n=4",0
same,TEAE Headache Grade 3,"600 mg BID, n=4",0
same,TEAE Hyperkalaemia Grade 1,"600 mg BID, n=4",1
same,TEAE Hyperkalaemia Grade 4,"600 mg BID, n=4",1
same,TEAE Hypertension Grade 2,"600 mg BID, n=4",0
same,TEAE Hypertension Grade 3,"600 mg BID, n=4",0
same,TEAE Hyperuricaemia Grade 1,"600 mg BID, n=4",1
same,TEAE Hyperuricaemia Grade 3,"600 mg BID, n=4",1
same,TEAE Hypokalaemia Grade 1,"600 mg BID, n=4",0
same,TEAE Hypokalaemia Grade 2,"600 mg BID, n=4",0
same,TEAE Hypokalaemia Grade 3,"600 mg BID, n=4",0
same,TEAE Hyponatraemia Grade 1,"600 mg BID, n=4",0
same,TEAE Hyponatraemia Grade 3,"600 mg BID, n=4",0
same,TEAE Hypophosphataemia Grade 1,"600 mg BID, n=4",0
same,TEAE Hypophosphataemia Grade 2,"600 mg BID, n=4",0
same,TEAE Leukocytosis Grade 2,"600 mg BID, n=4",0
same,TEAE Leukocytosis Grade 3,"600 mg BID, n=4",0
same,TEAE Lung infection Grade 3,"600 mg BID, n=4",1
same,TEAE Lung infection Grade 5,"600 mg BID, n=4",0
same,TEAE Nausea Grade 1,"600 mg BID, n=4",1
same,TEAE Nausea Grade 2,"600 mg BID, n=4",0
same,TEAE Nausea Grade 3,"600 mg BID, n=4",0
same,TEAE Oedema peripheral Grade 1,"600 mg BID, n=4",1
same,TEAE Oedema peripheral Grade 3,"600 mg BID, n=4",0
same,TEAE Pain in extremity Grade 1,"600 mg BID, n=4",0
same,TEAE Pain in extremity Grade 2,"600 mg BID, n=4",0
same,TEAE Pneumonia Grade 1,"600 mg BID, n=4",0
same,TEAE Pneumonia Grade 2,"600 mg BID, n=4",0
same,TEAE Pneumonia Grade 3,"600 mg BID, n=4",0
same,TEAE Pneumonia fungal Grade 2,"600 mg BID, n=4",0
same,TEAE Pneumonia fungal Grade 3,"600 mg BID, n=4",0
same,TEAE Pneumonia fungal Grade 4,"600 mg BID, n=4",0
same,TEAE Productive cough Grade 1,"600 mg BID, n=4",1
same,TEAE Productive cough Grade 2,"600 mg BID, n=4",0
same,TEAE Pyrexia Grade 1,"600 mg BID, n=4",1
same,TEAE Pyrexia Grade 2,"600 mg BID, n=4",1
same,TEAE Pyrexia Grade 3,"600 mg BID, n=4",0
same,TEAE Rash Grade 1,"600 mg BID, n=4",0
same,TEAE Rash Grade 2,"600 mg BID, n=4",1
same,TEAE Sepsis Grade 4,"600 mg BID, n=4",1
same,TEAE Sepsis Grade 5,"600 mg BID, n=4",0
same,TEAE Sinus tachycardia Grade 1,"600 mg BID, n=4",0
same,TEAE Thrombocytopenia Grade 4,"600 mg BID, n=4",0
same,TEAE Vomiting Grade 1,"600 mg BID, n=4",1
same,TEAE Weight decreased Grade 1,"600 mg BID, n=4",0
same,TEAE Weight decreased Grade 2,"600 mg BID, n=4",1
same,TEAE Weight decreased Grade 3,"600 mg BID, n=4",0
same,Related TEAE Decreased appetite Grade 1,"1200 mg BID, n=7",0
same,Related TEAE Decreased appetite Grade 2,"1200 mg BID, n=7",0
same,Related TEAE Diarrhea Grade 2,"1200 mg BID, n=7",2
same,Related TEAE Differentiation syndrome Grade 2,"1200 mg BID, n=7",0
same,Related TEAE Differentiation syndrome Grade 3,"1200 mg BID, n=7",1
same,Related TEAE Dyspnea Grade 1,"1200 mg BID, n=7",1
same,Related TEAE Dyspnea Grade 2,"1200 mg BID, n=7",0
same,Related TEAE Fatigue Grade 1,"1200 mg BID, n=7",0
same,Related TEAE Fatigue Grade 2,"1200 mg BID, n=7",1
same,Related TEAE Fatigue Grade 3,"1200 mg BID, n=7",0
same,Related TEAE Hypomagnesaemia Grade 1,"1200 mg BID, n=7",0
same,Related TEAE Nausea Grade 1,"1200 mg BID, n=7",1
same,Related TEAE Nausea Grade 2,"1200 mg BID, n=7",0
same,Related TEAE Sinus tachycardia Grade 1,"1200 mg BID, n=7",0
same,Related TEAE Vomiting Grade 1,"1200 mg BID, n=7",0
same,TEAE Abdominal pain upper Grade 1,"1200 mg BID, n=7",0
same,TEAE Abdominal pain upper Grade 2,"1200 mg BID, n=7",0
same,TEAE Acute kidney injury Grade 1,"1200 mg BID, n=7",0
same,TEAE Acute kidney injury Grade 2,"1200 mg BID, n=7",0
same,TEAE Acute kidney injury Grade 3,"1200 mg BID, n=7",0
same,TEAE Anaemia Grade 3,"1200 mg BID, n=7",3
same,TEAE Anaemia Grade 4,"1200 mg BID, n=7",0
same,TEAE Anxiety Grade 1,"1200 mg BID, n=7",1
same,TEAE Anxiety Grade 2,"1200 mg BID, n=7",0
same,TEAE Arthralgia Grade 1,"1200 mg BID, n=7",0
same,TEAE Arthralgia Grade 2,"1200 mg BID, n=7",1
same,TEAE Constipation Grade 1,"1200 mg BID, n=7",1
same,TEAE Constipation Grade 2,"1200 mg BID, n=7",0
same,TEAE Contusion Grade 1,"1200 mg BID, n=7",1
same,TEAE Contusion Grade 2,"1200 mg BID, n=7",0
same,TEAE Cough Grade 1,"1200 mg BID, n=7",0
same,TEAE Cough Grade 2,"1200 mg BID, n=7",0
same,TEAE Decreased appetite Grade 1,"1200 mg BID, n=7",0
same,TEAE Decreased appetite Grade 2,"1200 mg BID, n=7",1
same,TEAE Decreased appetite Grade 3,"1200 mg BID, n=7",0
same,TEAE Diarrhea Grade 1,"1200 mg BID, n=7",1
same,TEAE Diarrhea Grade 2,"1200 mg BID, n=7",2
same,TEAE Dry skin Grade 1,"1200 mg BID, n=7",1
same,TEAE Dyspnoea Grade 1,"1200 mg BID, n=7",1
same,TEAE Dyspnoea Grade 2,"1200 mg BID, n=7",1
same,TEAE Dyspnoea Grade 3,"1200 mg BID, n=7",0
same,TEAE Epistaxis Grade 1,"1200 mg BID, n=7",0
same,TEAE Epistaxis Grade 2,"1200 mg BID, n=7",2
same,TEAE Epistaxis Grade 3,"1200 mg BID, n=7",0
same,TEAE Fall Grade 1,"1200 mg BID, n=7",1
same,TEAE Fatigue Grade 1,"1200 mg BID, n=7",0
same,TEAE Fatigue Grade 2,"1200 mg BID, n=7",2
same,TEAE Fatigue Grade 3,"1200 mg BID, n=7",0
same,TEAE Febrile neutropenia Grade 3,"1200 mg BID, n=7",2
same,TEAE General physical health deterioration Grade 3,"1200 mg BID, n=7",0
same,TEAE General physical health deterioration Grade 5,"1200 mg BID, n=7",0
same,TEAE Gingivitis Grade 1,"1200 mg BID, n=7",0
same,TEAE Haematuria Grade 1,"1200 mg BID, n=7",1
same,TEAE Haematuria Grade 2,"1200 mg BID, n=7",0
same,TEAE Haematuria Grade 3,"1200 mg BID, n=7",0
same,TEAE Headache Grade 1,"1200 mg BID, n=7",0
same,TEAE Headache Grade 2,"1200 mg BID, n=7",0
same,TEAE Headache Grade 3,"1200 mg BID, n=7",0
same,TEAE Hyperkalaemia Grade 1,"1200 mg BID, n=7",0
same,TEAE Hyperkalaemia Grade 4,"1200 mg BID, n=7",0
same,TEAE Hypertension Grade 2,"1200 mg BID, n=7",0
same,TEAE Hypertension Grade 3,"1200 mg BID, n=7",1
same,TEAE Hyperuricaemia Grade 1,"1200 mg BID, n=7",2
same,TEAE Hyperuricaemia Grade 3,"1200 mg BID, n=7",0
